Data reported in patent publication US20250188123A1, “PROTEASE INHIBITORS” (Regents of the University of Minnesota, priority 2022, published 2025).

Key:
Type in all cases: biochemical
Human recombinant Casp6 = target: T1, Human recombinant Casp6 (Homo sapiens, UniProt P55212); assay: In vitro caspase panel assay, Casp6; conditions: Casp2 over Casp6, caspase panel
T1 construct: purchased BioVision (Milpitas/CA, USA)
T1 sequence (P55212 24-293): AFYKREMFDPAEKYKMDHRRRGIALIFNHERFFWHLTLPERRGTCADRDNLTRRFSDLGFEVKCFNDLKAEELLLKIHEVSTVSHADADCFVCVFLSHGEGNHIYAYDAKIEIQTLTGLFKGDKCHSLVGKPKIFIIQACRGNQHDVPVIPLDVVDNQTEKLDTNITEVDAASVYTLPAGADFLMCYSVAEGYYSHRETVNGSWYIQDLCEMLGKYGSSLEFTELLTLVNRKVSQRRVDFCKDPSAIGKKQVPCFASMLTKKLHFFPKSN
Description: (§1) Human recombinant Casp1, 6, 7, and 9 were purchased from BioVision (Milpitas/CA, USA). AFC fluorogenic substrates and control peptides (AcYVAD-CHO, AcVDVAD-CHO, AcDEVD-CHO, AcVEID-CHO, and AcLEHD-CHO) were purchased from Bachem (Torrance/CA, USA). The pET23b vector encoding human caspase-3 was a gift of Dr. Michelle Arkin at University of California, San Francisco. Expression and purification of Casp3 was guided by previously described protocols (Denault J-B, Salvesen G S., Current Protocols in Protein Science, 2002, 30(1), 21.13. 1-21.13. 15). Briefly, the plasmid was transformed into E. coli Rosetta 2 pLyss DE3 cells that were cultured at 1 L scale in shake flasks. […] The typical yield for the expression, isolation, and purification was approximately 3 mg/L. The DNA encoding human caspase-2 (hCASP2, amino acids 170-452, free of the N-terminal caspase activation and recruitment domain) open reading frame (ORF) was amplified via polymerase chain reaction (PCR) from full-length hCASP2 cDNA (Origene, Rockville, MD; Cat #SC321316) using following primers: forward, 5′-[…]-3′; reverse, 5′-[…]-3′. […] Proteins were stored in 1× phosphate-buffered saline (pH 7.4) at 10 mg/mL (concentration determined using a BCA assay (Thermo Fisher Scientific)), −80° C. until further use. […]

Human recombinant Casp7 = target: T2, Human recombinant Casp7 (Homo sapiens, UniProt P55210); assay: In vitro caspase panel assay, Casp7; conditions: Casp2 over Casp7, caspase panel
T2 construct: purchased BioVision (Milpitas/CA, USA)
T2 sequence (P55210 1-303): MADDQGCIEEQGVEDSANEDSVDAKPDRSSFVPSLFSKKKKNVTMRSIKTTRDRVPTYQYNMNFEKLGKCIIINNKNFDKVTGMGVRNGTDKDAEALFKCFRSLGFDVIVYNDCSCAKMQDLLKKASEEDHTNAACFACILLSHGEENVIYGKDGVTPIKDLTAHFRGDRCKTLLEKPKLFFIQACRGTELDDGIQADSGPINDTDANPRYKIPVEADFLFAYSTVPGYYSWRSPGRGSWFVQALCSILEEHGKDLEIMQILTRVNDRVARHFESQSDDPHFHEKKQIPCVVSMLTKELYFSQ
Description: as §1

Human recombinant Casp9 = target: T3, Human recombinant Casp9 (Homo sapiens, UniProt P55211); assay: In vitro caspase panel assay, Casp9; conditions: Casp2 over Casp9, caspase panel
T3 construct: purchased BioVision (Milpitas/CA, USA)
T3 sequence (P55211 1-416): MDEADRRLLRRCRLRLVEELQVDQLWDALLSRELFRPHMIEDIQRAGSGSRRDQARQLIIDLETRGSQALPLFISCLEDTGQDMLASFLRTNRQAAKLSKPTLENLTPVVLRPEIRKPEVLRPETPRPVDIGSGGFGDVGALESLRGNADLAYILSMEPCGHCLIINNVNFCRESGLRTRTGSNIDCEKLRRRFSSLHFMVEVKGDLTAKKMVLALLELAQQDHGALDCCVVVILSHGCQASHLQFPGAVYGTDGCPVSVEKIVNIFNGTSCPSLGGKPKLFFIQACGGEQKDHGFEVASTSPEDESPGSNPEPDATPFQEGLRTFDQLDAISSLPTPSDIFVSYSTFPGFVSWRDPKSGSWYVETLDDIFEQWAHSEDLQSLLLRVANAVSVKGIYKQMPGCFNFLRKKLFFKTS
Description: as §1

Cc1ccc2c(c1)CCN(C(=O)[C@@H](NC(=O)[C@H](CCCC(=O)O)NC(=O)C1Cc3ccccc3N1)C(C)C)[C@@H]2C(=O)N[C@H](C#N)CC(=O)O (stereo partly drawn) [Compound 1, (8)-6-(((S)-1-((8)-1-(((S)-2-carboxy-1-cyanoethyl)carbamoyl)-6-methyl-3,4-dihydroisoquinolin-2(1H)-yl)-3-methyl-1-oxobutan-2-yl)amino)-5-((S)-indoline-2-carboxamido)-6-oxohexanoic acid]
> 2000 fold: selective versus Casp6 (Human recombinant Casp6) | selective versus Casp7 (Human recombinant Casp7) | selective versus Casp9 (Human recombinant Casp9)
